Experimental data taken from patent publication US12292437B2, “Fluorescence histo-tomography (FHT) systems and methods” (Emit Imaging, Inc., priority 2015, dated 2025).

Settings: rat, in vivo
Description: To address some of these potential drawbacks, as described above, high resolution white light and multispectral (700 and 800 nm) fluorescence images may be captured off the block after every pass of the micro- or macrotome blade using an intraoperative fluorescence imaging system, thus vastly improving the amount of information captured throughout the specimen and decreasing total acquisition time. Generally, the process of fluorescent and high resolution white light data collection and subsequent co-registration and/or three-dimensional reconstruction, is referred to herein as cryofluorescence tomography or FHT.
To investigate the ability of FHT to study the physiology of the brain, XenoLight RediJect 2-Deoxy-D-glucose (2-DG, PerkinElmer, 750 nm excitation), a fluorescent glucose metabolism tracer, was injected into the intrathecal space of a rat. After 1.5 hours of distribution, the animal was sacrificed, the brain tissue excised, and the sample was cryopresevered in OCT. With each pass of the microtome blade (25 micron spacing), a high resolution white light and fluorescent image was acquired.
Further, to study the anatomy of ventricles and subarachnoid space, a fluorescent zwitterionic compound ZW800-1 (Curadel, LLC) was injected into the rat intrathecal space. This compound is not expected to cross into the brain parenchyma due to its chemical properties. […]

fluorescence signal in brain parenchyma: taken up in the brain parenchyma
Substance: XenoLight RediJect 2-Deoxy-D-glucose [2-DG]
